This is an account of results in patent US20230285336A1, “COMPOSITION FOR PREVENTION AND TREATMENT OF SKIN DISEASES CAUSED BY GENETIC MUTATION COMPRISING FERULIC ACID AND ANALOGS THEREOF” (UNIVERSITY-INDUSTRY COOPERATION GROUP OF KYUNG HEE …, priority 2019, published 2023).

For assay [1], the system named is c-myc protein. Briefly: c-myc protein expression in skin dermal stem cells. It is filed as cell-based, mouse. As to conditions: skin dermal stem cells (FIGS. 9 and 10). As to the method: (§1) In order to confirm whether ferulic acid regulates beta-catenin protein, an experiment was carried out to confirm the expression levels of beta-catenin protein and c-myc protein in epidermal cells and dermal cells of the skin.
(§2) The expression levels of beta-catenin protein and c-myc protein after treating skin dermal stem cells with ferulic acid, and the expression levels of beta-catenin protein and c-myc protein after treating skin dermal stem cells with ferulic acid together with LiCl, which is a beta-catenin protein inducer, were confirmed using immunofluorescence staining and Western blotting.
(§3) First, for immunofluorescence staining, the cell fluorescence staining method of Example 1 was referred to. At this time, beta-catenin (anti-beta-catenin extracted from mouse, 1:200, Invitrogen, CA, USA) was used instead of keratin 6A as a primary antibody, and Alexa 647 (anti-mouse IgG derived from goat, 1:1000, Invitrogen, CA, USA) was used instead of Alexa 488 (anti-rabbit IgG extracted from donkey, 1:1000, Invitrogen, CA, USA) as a secondary antibody.
(§4) In addition, for Western blotting, the Western blotting method of Example 1 was referred to. In this case, beta-catenin (anti-beta catenin extracted from mouse, 1:200, Invitrogen, CA, USA) was used instead of keratin 6A as a primary antibody.

For assay [2], the system named is keratin 6A protein. Briefly: Keratin 6A protein expression in cultured skin tissue of mouse, immunofluorescence staining. It counts as cell-based. To be noted: cultured 12 days, compared to control group not treated (FIG. 1). As for the experimental part:
(§5) In order to confirm whether ferulic acid induces the expression of keratin 6A protein from the skin tissue of a mouse, the cross-sections of the cultured skin tissue and the skin tissue of an adult mouse were treated with ferulic acid to confirm the expression level of keratin 6A protein using Western blotting and immunofluorescence staining.
First, after peeling off the skin of a mouse within one day of age, a circular skin piece was spread on a 24-well plate using a 4 mm punch (Kai industries). The cell medium was carefully added with the growth factor Cnt-57 according to the method of CELLnTEC, and the medium was replaced once every two days. […]
Specifically, for cell fluorescence staining, 500 μl of a 4% paraformaldehyde solution (solvent, PBS) was reacted for 20 minutes, and then washed three times with a washing buffer (0.1 M, PBS). […]
For tissue fluorescence staining, after removing paraffin from the paraffin-coated skin tissue, the tissue was washed three times with a washing buffer (0.1 M, PBS), and reacted with a solution containing hydrogen peroxide (0.1 M PBS, 0.2% H2O2) for 30 minutes to eliminate the activity of endogenous peroxidase. […] Then, after washing three times with a washing buffer (0.1 M, PBS), fluorescence photos were taken using a FluoView FV1000 confocal microscope (Olympus, Tokyo, Japan).

Assay [3] has as its system beta-catenin protein. Description: Beta-catenin protein expression in skin dermal stem cells, immunofluorescence staining and Western blotting. It counts as cell-based, mouse. As to conditions: skin dermal stem cells (FIGS. 9 and 10). As to the method: as §1, §2, §3, §4
(Immunoblotting shows a protein as a band on a membrane.)

For assay [4], the system named is keratin 6A protein. Description: Keratin 6A protein expression in skin tissue of an adult mouse, Western blotting and immunofluorescence staining. It is filed as in vivo. As for the experimental part: as §5
For tissue fluorescence staining, after removing paraffin from the paraffin-coated skin tissue, the tissue was washed three times with a washing buffer (0.1 M, PBS), and reacted with a solution containing hydrogen peroxide (0.1 M PBS, 0.2% H2O2) for 30 minutes to eliminate the activity of endogenous peroxidase. […] Then, after washing three times with a washing buffer (0.1 M, PBS), fluorescence photos were taken using a FluoView FV1000 confocal microscope (Olympus, Tokyo, Japan). […]
(§6) First, in order to confirm the expression levels of two proteins, keratin 6A and beta-catenin, skin tissue was collected and protein was extracted using a dissolution buffer (pH 7.4, 50 mM, Tris-HCL, 150 mM NaCL, 1 mM EDTA, 1 mM EGTA, 10 mg/mL aprotinin, 10 mg/mL leupeptin, 5 mM phenylmethylsulfonyl fluoride and 1 mM DTT). The extracted protein was quantified using a Bradford reaction solution (Bio-Rad, CA, USA), and 20 μL of the protein was electrophoresed by 10% SDS-PAGE, and transferred to a nitrocellulose membrane (Merck, MA, USA). […]

In assay [5] the test system is beta-catenin protein. Description: Beta-catenin protein expression in skin epidermal stem cells, immunofluorescence staining and Western blotting. To be noted: skin epidermal stem cells (FIGS. 7 and 8). It is filed as cell-based, mouse. As for the experimental part: as §1
(§7) The expression levels of beta-catenin protein and c-myc protein after treating skin epidermal stem cells with ferulic acid, and the expression levels of beta-catenin protein and c-myc protein after treating skin epidermal stem cells with ferulic acid together with LiCl, which is a beta-catenin protein inducer, were confirmed using immunofluorescence staining and Western blotting.
as §3, §4

The test system of assay [6] is c-myc protein. Description: c-myc protein expression in skin epidermal stem cells. It is filed as cell-based, mouse. As to conditions: skin epidermal stem cells (FIGS. 7 and 8). As for the experimental part:
as §1, §7, §3, §4

The test system of assay [7] is keratin 6A protein. Description: Keratin 6A protein expression in keratin 5 knock-down kera308 cells, Western blotting. It is filed as cell-based, mouse. As to conditions: 100 μM, 24 hours, compared to not treated (FIG. 6). As for the experimental part: as §6, with “USA). The membrane was reacted with primary antibodies keratin 6A (rabbit anti-keratin 6A, 1:200, Covans, NJ, USA) and β-actin (anti-β-actin extracted from mouse, 1:1000, Santa Cruz, TX, USA), and washed three times with TBS-T (Tris Buffered Saline with Tween 20) for 10 minutes, and then the membrane was reacted with a secondary antibody (Santa Cruz, TX, USA) for 1 hour.” for “USA).”
The cells were precultured for 15 hours after attaching 1×10^6 cells/well of kera308 cells, and cultured for 24 hours after being treated with 100 μM ferulic acid. The harvested cells were centrifuged at 13,000 rpm for 5 minutes to take the supernatant, and then the protein concentration was quantified using Bradford assay (BioRed). […]

As to `COc1cc(/C=C/C(=O)O)ccc1O` [ferulic acid], in the assay on c-myc protein [1], the “amount of c-myc protein” value is on record as “increased”. Also, the “expression level of keratin 6A protein” value with keratin 6A protein [2] is listed as “increased”; in the assay on keratin 6A protein [4] (skin tissue of an adult mouse treated for 3 days and 7 days (FIGS. 2 and 3)), “increased significantly”; with keratin 6A protein [4] (skin tissue of an adult mouse, 3 days after treating (FIGS. 2 and 3)), “particularly high”; in the assay with keratin 6A protein [7], “increased significantly”. For the same compound, the “amount of beta-catenin protein” value in the assay with beta-catenin protein [3] is given as “increased”. For the same compound, the “expression of beta-catenin protein” value in the assay on beta-catenin protein [5] was “suppressed”. For the same compound, the “expression of c-myc protein” value in the assay on c-myc protein [6] is recorded as “suppressed”.
